According to PubChem BioAssay (NCI):
“And” between values parts separate entries of the source, which are not always exact repeats. Equal entries are not always repeated.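 Step 1: Grow cells in 96-well plates. Step 2: Expose to compound for 48 hours at 5 concentrations. Step 3: Interpolate endpoints linearly; if unreached, use highest concentration. GI50 marks 50% less growth. TGI: total growth inhibition.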

test system: NCI-H23 lung; experiment: inhibition of tumour cell growth, NCI panel, 48 h

What does the source list for `COc1cccc2c1C(=O)c1c(O)c3c(c(O)c1C2=O)CC(O)(C(O)CO)CC3OC1CC(N2CCOCC2)C(O)C(C)O1` (configuration not stated)?
GI50: 0.0174 µM; TGI: 0.0249 µM and 0.0419 µM

Which GI50 does the source give for `O=C1C(N2CC2)=C(N2CC2)C(=O)C(N2CC2)=C1N1CC1` here?
Its GI50 is less than 0.0233 µM.

What about the TGI of the same compound?
Its TGI is 0.245 µM.

For `O=C(O)C1OC1(c1cccc(Cl)c1)c1ccccc1Cl` (configuration not stated), which TGI is on record?
The TGI was 54.6 µM.

Which GI50 does the source give for `CCCCC[C@H]1C/C=C2/C(=O)C=C[C@@H]2C/C=C\CCCC(=O)O[C@@H](CCCCC)C/C=C2/C(=O)C=C[C@@H]2C/C=C\CCCC(=O)O1` here?
The GI50 was 0.289 µM.

And the TGI?
Its TGI is 0.822 µM.

How did the GI50 turn out when `O=C(Nc1cccc(-n2cc(-c3ccncc3)c(-c3cc(O)cc(Cl)c3)n2)c1)Nc1ccc(Cl)c(C(F)(F)F)c1` was run?
The GI50 was 2.58 µM.

What about the TGI of the same compound?
The TGI was 7.45 µM.

What does the source list for `COC1/C=C/C(C)C(C(C)C(OC)C(C)CCC(=O)C(C)C(C/C=C/N(C)C=O)OC)OC(=O)/C=C/C=C(\C)CC(OC)CC2=CC(=O)O[C@H](C2)C(C)C(OC)CC(OC)/C=C/C(C)C(OC)C1` (some centres not stated)?
GI50: 0.0919 µM; TGI: 0.499 µM and 0.171 µM

How did the GI50 turn out when `CNCCCn1c2c(c3ccc([N+](=O)[O-])cc3c1=O)C(=O)c1cc(OC)cnc1-2` was run?
Its GI50 is 0.04 µM.

And the TGI?
Its TGI is 0.267 µM.

With `C#CC1(O)C(COP(=O)(O)OC(COCCCCCCCCCCCCCCCCCC)COP(=O)(O)OCC2OC(n3cc(F)c(=O)[nH]c3=O)CC2O)OC(n2ccc(N)nc2=O)C1O` (configuration not stated) as the compound, how does the GI50 read?
The GI50 was 0.613 µM and 2.28 µM.

What about the TGI of the same compound?
Its TGI is 20.7 µM and 33.1 µM.

Which TGI does the source give for `COc1cc2oc3cc(=O)cc4oc(-c5ccccc5)cc(c2c2c1CCC(c1ccccc1)O2)c43` (configuration not stated) here?
The TGI was greater than 100 µM.

With `c1cc2n(n1)CCN2` as the compound, how does the TGI read?
The TGI was 6720 µM.

Which results are given for `COc1cc(Nc2c(C#N)cnc3cc(OCCCN4CCN(C)CC4)c(OC)cc23)c(Cl)cc1Cl`?
GI50: 4.55 µM; TGI: 17.7 µM

For `O=CN/C=C/c1cccc(O)c1`, which TGI is on record?
The TGI was 72.4 µM.

For `Nc1ccc2c(SCc3ccc([N+](=O)[O-])cc3)c3ccccc3nc2c1`, which TGI is on record?
The TGI was 32.8 µM.

With `COC1=CC(c2ccc[nH]2)=N/C1=C\c1[nH]c(C)c(C(=O)CCCCC(=O)NC(C)(C)C)c1C` as the compound, how does the GI50 read?
The GI50 was 1.57 µM.

And the TGI?
Its TGI is 4.46 µM.

For `O=c1ccn(C2CC(O)C(CO)O2)c(=O)[nH]1` (configuration not stated), which GI50 is on record?
The GI50 was greater than 5000 µM.

And the TGI?
The TGI was greater than 5000 µM.

With `O=C(N/C(=C/c1ccc(Cl)cc1Cl)c1nc2ccccc2s1)c1ccccc1` as the compound, how does the TGI read?
Its TGI is 26.5 µM.

For `CCOC(=O)c1cc2c(n1Cc1cccc(OC)c1)-c1oncc1CCC2`, which GI50 is on record?
Its GI50 is 8.68 µM.

What about the TGI of the same compound?
The TGI was greater than 100 µM.

With `COc1c(O)cc2oc(-c3ccc(O)cc3)cc(=O)c2c1O` as the compound, how does the TGI read?
Its TGI is greater than 100 µM.

What does the source list for `COc1cccc(-c2nn(-c3ccccc3)cc2-c2ccnc(NCCCNC(=O)Nc3ccc(Cl)c(Cl)c3)c2)c1`?
GI50: 3.16 µM; TGI: 13.9 µM

For `c1csc(-c2cn3nc(-c4c[nH]c5ccccc45)sc3n2)c1`, which GI50 is on record?
The GI50 was 4.47 µM.

And the TGI?
Its TGI is greater than 100 µM.

For `COc1cc2ccccc2oc1=O`, which TGI is on record?
Its TGI is greater than 100 µM.

What does the source list for `COc1ccc(-c2nc(-c3ccccc3)c(-c3ccccc3)[nH]2)cc1OC1CCCC1`?
GI50: > 100 µM; TGI: > 100 µM

test system: RXF 393 renal; experiment: inhibition of tumour cell growth, NCI panel, 48 h

Which GI50 does the source give for `C[C@]12CCc3sc(NCCc4ccccc4)nc3C1=CC[C@@H]1[C@@H]2CC[C@]2(C)C(=O)CC[C@@H]12` here?
The GI50 was 1.73 µM.

And the TGI?
The TGI was 4.49 µM.

Which GI50 does the source give for `COc1cccc(C2=C(c3c(C)n(C)c4ccccc34)C(=O)NC2=O)c1` here?
Its GI50 is 12 µM.

And the TGI?
Its TGI is greater than 25 µM.

How did the GI50 turn out when `CCN(Cc1ccc(F)cc1)c1ccc(CO)c(F)c1` was run?
The GI50 was 5.47 µM.

And the TGI?
Its TGI is 25.9 µM.

Which GI50 does the source give for `O=C(Cn1c(=O)c(-c2ccccc2)nc2ccccc21)Nc1ccc(F)cc1` here?
The GI50 was 35.5 µM.

And the TGI?
The TGI was greater than 100 µM.

How did the TGI turn out when `CN(C)CCNC(=O)c1cc([N+](=O)[O-])cc2c1Oc1ccccc1O2` was run?
Its TGI is 93.7 µM.

With `COc1cccc2c1C(=O)c1c(O)c3c(c(O)c1C2=O)CC(O)(C(O)CO)CC3OC1CC(N2CCOCC2)C(O)C(C)O1` (configuration not stated) as the compound, how does the GI50 read?
Its GI50 is less than 0.001 µM.

How did the GI50 turn out when `O=C1C(N2CC2)=C(N2CC2)C(=O)C(N2CC2)=C1N1CC1` was run?
Its GI50 is 0.218 µM.

What about the TGI of the same compound?
Its TGI is 1.01 µM.

Which TGI does the source give for `O=C(O)C1OC1(c1cccc(Cl)c1)c1ccccc1Cl` (configuration not stated) here?
The TGI was 82.1 µM.

Which results are given for `CCCCC[C@H]1C/C=C2/C(=O)C=C[C@@H]2C/C=C\CCCC(=O)O[C@@H](CCCCC)C/C=C2/C(=O)C=C[C@@H]2C/C=C\CCCC(=O)O1`?
GI50: 0.193 µM; TGI: 0.526 µM

With `O=C(Nc1cccc(-n2cc(-c3ccncc3)c(-c3cc(O)cc(Cl)c3)n2)c1)Nc1ccc(Cl)c(C(F)(F)F)c1` as the compound, how does the GI50 read?
Its GI50 is 1.42 µM.

And the TGI?
Its TGI is 3.88 µM.

For `COC1/C=C/C(C)C(C(C)C(OC)C(C)CCC(=O)C(C)C(C/C=C/N(C)C=O)OC)OC(=O)/C=C/C=C(\C)CC(OC)CC2=CC(=O)O[C@H](C2)C(C)C(OC)CC(OC)/C=C/C(C)C(OC)C1` (some centres not stated), which GI50 is on record?
The GI50 was 0.0378 µM.

What about the TGI of the same compound?
The TGI was 0.141 µM and 0.0376 µM.

How did the GI50 turn out when `CNCCCn1c2c(c3ccc([N+](=O)[O-])cc3c1=O)C(=O)c1cc(OC)cnc1-2` was run?
Its GI50 is 0.0685 µM.

And the TGI?
Its TGI is 0.372 µM.
